Measurements: patent US20110171675A1, “FRET-BASED MEMBRANE-TYPE 1 MATRIX METALLOPROTEINASE BIOSENSOR AND METHODS FOR USING THE SAME” (priority 2008, published 2011)

How the values were obtained:
Src [1] = assay: PDGF-induced Src activation in MEFs (Src FRET biosensor); assay type: cell-based, mouse
Text: Unexpectedly, PDGF-induced Src activation was global without a clear spatial pattern at subcellular levels, even when MEFs were constrained on fibronectin stripes to have directional migration.

Src [2] = assay: VEGF-induced membrane Src activation in live endothelial cells (FRET); assay type: cell-based; conditions: YPet-based membrane-targeted Src biosensor
Text: Both VEGF and Src are critical for angiogenesis. […] However, VEGF-induced Src activation was difficult to detect using an ECFP/Citrine-based biosensor. […] Thus, the YPet-based Src biosensor was targeted to the plasma membrane by fusing a prenylation substrate sequence (Lys-Lys-Lys-Lys-Lys-Lys-Ser-Lys-Thr-Lys-Cys-Val-Ile-Met; SEQ ID NO:9) from KRas to visualize the VEGF-induced membrane Src activation in live endothelial cells.

Rac = assay: PDGF-induced Rac activity in MEFs (Rac FRET biosensor); assay type: cell-based, mouse
Text: The improved ECFP/YPet biosensor was further used in the analysis of molecular hierarchy in cell migration. […] However, the spatiotemporal interrelationship between Src and Rac activation has not been shown. Thus, the improved Rac biosensor was employed to visualize the spatiotemporal Rac activity during cell migration in response to platelet-derived growth factor (PDGF). The role of Src in regulating this Rac activation was also investigated. […] PDGF induced a strong Rac activation at membrane ruffles and a moderate overall activation of Rac in the whole cell. […] To further characterize the spatiotemporal Rac activity, MEF cells transfected with the Rac biosensor were seeded atop fibronectin-coated stripes (10 μm width) to constrain the cell adhesion and control the direction of cell migration. […] Again, the inhibition of Src by PP1 or Src/Yes/Fyn triple-knockout blocked the polarized Rac activity before and after PDGF stimulation.

C=C1[C@@H](C)[C@H]2[C@H](Cc3ccccc3)NC(=O)[C@]23[C@H](OC(C)=O)/C=C/[C@@](C)(O)C(=O)[C@@H](C)C/C=C/[C@H]3[C@@H]1O [CytoD]
PDGF-induced Src activation (Src [1]; MEF cells transfected with RacV12): inhibited | PDGF-induced Src activation (Src [1]; MEFs, disruption of actin filaments): blocked

Cc1ccc(-c2nn(C(C)(C)C)c3ncnc(N)c23)cc1 [PP1]
Effect of inhibitor on VEGF-induced FRET response (Src [2]): abolished | Polarized Rac activity before and after PDGF stimulation (Rac; MEFs on fibronectin-coated stripes (10 μm width)): blocked | Basal and PDGF-induced Rac activity (Rac; MEFs pretreated with inhibitor, cultured on fibronectin): significantly inhibited

CC(C)c1cc(/C=C(\C#N)C(=O)NCCCc2ccccc2)cc(C(C)C)c1O [SU1498]
Effect of inhibitor on VEGF-induced FRET response (Src [2]): abolished
